Results published in PubChem BioAssay AID330 (DTP/NCI, 2004).
Where “and” joins values, the source holds several entries; their conditions need not be identical. Identical values can stand only once. Toxic doses and inconclusive results are not listed. The calls were made as follows: active = survival T/C of 150% or more; inactive = T/C below 125% in these data.

System: P388 leukemia ip, CD2F1 mice, survival T/C
Assay: NCI In Vivo Anticancer Drug Screen. Data for tumor model P388 Leukemia (intraperitoneal) in CD2F1 (CDF1) mice
Conditions: endpoint: median survival time, higher = longer survival
Outline: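 Mice carrying the transplanted tumor received test compound or vehicle. Survival was recorded in each group, and the value is the treated-group measurement divided by that of the vehicle-treated control group.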

[1] = dose: 60.0 mg/kg/injection, schedule: Q01DX005 (ip), vehicle: saline with Tween-80
[2] = dose: 120.0 mg/kg/injection, schedule: Q01DX005 (ip), vehicle: saline with Tween-80
[3] = dose: 100.0 mg/kg/injection, schedule: Q04DX003 (ip), vehicle: saline with Tween-80
[4] = dose: 200.0 mg/kg/injection, schedule: Q04DX003 (ip), vehicle: saline with Tween-80
[5] = dose: 400.0 mg/kg/injection, schedule: Q04DX003 (ip), vehicle: saline with Tween-80
[6] = dose: 50.0 mg/kg/injection, schedule: Q01DX005 (ip), vehicle: Klucel (hydroxypropylcellulose) (HPC)
[7] = dose: 100.0 mg/kg/injection, schedule: Q01DX005 (ip), vehicle: Klucel (hydroxypropylcellulose) (HPC)
[8] = dose: 200.0 mg/kg/injection, schedule: Q01DX005 (ip), vehicle: Klucel (hydroxypropylcellulose) (HPC)
[9] = dose: 12.5 mg/kg/injection, schedule: Q01DX009 (ip), vehicle: saline with Tween-80
[10] = dose: 25.0 mg/kg/injection, schedule: Q01DX009 (ip), vehicle: saline with Tween-80
[11] = dose: 50.0 mg/kg/injection, schedule: Q01DX009 (ip), vehicle: saline with Tween-80
[12] = dose: 100.0 mg/kg/injection, schedule: Q01DX009 (ip), vehicle: saline with Tween-80
[13] = dose: 200.0 mg/kg/injection, schedule: Q01DX009 (ip), vehicle: saline with Tween-80
[14] = dose: 50.0 mg/kg/injection, schedule: Q01DX009 (ip), vehicle: Klucel (hydroxypropylcellulose) (HPC)
[15] = dose: 100.0 mg/kg/injection, schedule: Q01DX009 (ip), vehicle: Klucel (hydroxypropylcellulose) (HPC)
[16] = dose: 200.0 mg/kg/injection, schedule: Q01DX009 (ip), vehicle: Klucel (hydroxypropylcellulose) (HPC)
[17] = dose: 240.0 mg/kg/injection, schedule: Q01DX005 (ip), vehicle: saline with Tween-80
[18] = dose: 50.0 mg/kg/injection, schedule: Q01DX005 (ip), vehicle: saline
[19] = dose: 100.0 mg/kg/injection, schedule: Q01DX005 (ip), vehicle: saline
[20] = dose: 200.0 mg/kg/injection, schedule: Q01DX005 (ip), vehicle: saline
[21] = dose: 100.0 mg/kg/injection, schedule: Q04DX002 (ip), vehicle: saline with Tween-80
[22] = dose: 200.0 mg/kg/injection, schedule: Q04DX002 (ip), vehicle: saline with Tween-80
[23] = dose: 12.5 mg/kg/injection, schedule: Q01DX009 (ip), vehicle: saline

Measured: T/C

N#Cc1c(C(=O)NOCCCc2ccccc2)cc(-c2ccc(F)cc2)[nH]c1=O
inactive: [1] 107 % of control | [2] 103 % of control

COc1ccc(-c2nc3ccccc3[nH]2)cc1
inactive: dose: 50.0 mg/kg/injection, schedule: Q04DX003 (ip), vehicle: saline with Tween-80 103 % of control | [3] 106 % of control | [4] 102 % of control | [5] 120 % of control

COc1ccc(O)c(C(C)=O)c1
inactive: [6] 102 % of control | [7] 100 % of control | [8] 98 % of control

COC1/C=C/OC2(C)Oc3c(C)c(O)c4c(O)c(c(/C=N/N(C)C5OC(COC(=O)c6ccccc6)C(OC(=O)c6ccccc6)C5OC(=O)c5ccccc5)c(O)c4c3C2=O)NC(=O)C(C)=C/C=C/C(C)C(O)C(C)C(O)C(C)C(OC(C)=O)C1C (configuration not stated)
inactive: [9] 104 % of control | [10] 107 % of control | [11] 108 % of control and 112 % of control | [12] 114 % of control | [13] 117 % of control

CCN(CC)CCNc1ccc(COC(=O)Nc2ccccc2)c2sc3ccccc3c(=O)c12
inactive: dose: 6.25 mg/kg/injection, schedule: Q01DX005 (ip), vehicle: Klucel + Tween-80 111 % of control

c1ccc(Nc2ncnc3ccccc23)cc1
inactive: [14] 102 % of control | [15] 102 % of control | [16] 112 % of control

O=[N+]([O-])c1ccc(C(Nc2nncs2)Nc2nncs2)c([N+](=O)[O-])c1
inactive: [6] 97 % of control | [7] 96 % of control | [8] 100 % of control

CC(C)SC1NC(=O)N(C)C1=O (configuration not stated)
inactive: [11] 100 % of control | [12] 107 % of control | [13] 100 % of control

O=C(NCCN1C(=O)C2C3CCC(O3)C2C1=O)Nc1ccc([N+](=O)[O-])cc1[N+](=O)[O-] (configuration not stated)
inactive: [1] 91 % of control | [2] 91 % of control

CC(=O)C1C(=O)C(=O)N(c2ccc(Cl)cc2)C1=O (configuration not stated)
inactive: [14] 101 % of control | [15] 96 % of control | [16] 104 % of control

CCN(CC)C(=S)SC(=S)N(CC)CC
inactive: [12] 108 % of control | [13] 104 % of control | dose: 400.0 mg/kg/injection, schedule: Q01DX009 (ip), vehicle: saline with Tween-80 103 % of control

COc1ccc(NC(=O)C(COCc2ccccc2)C(C)=O)cc1 (configuration not stated)
inactive: [1] 94 % of control | [2] 91 % of control | [17] 92 % of control

O=C(Nc1ccc(S(=O)(=O)F)cc1)c1ccc2ccccc2c1O
inactive: [14] 103 % of control | [15] 94 % of control | [16] 91 % of control

CNC(=S)N/N=C(C)/C=C/c1ccccc1
inactive: [6] 107 % of control | [7] 101 % of control | [8] 101 % of control

CCN1N=Nc2ccccc2C1O (configuration not stated)
inactive: dose: 12.5 mg/kg/injection, schedule: Q04DX002 (ip), vehicle: saline 98 % of control | dose: 25.0 mg/kg/injection, schedule: Q04DX002 (ip), vehicle: saline 98 % of control | dose: 50.0 mg/kg/injection, schedule: Q04DX002 (ip), vehicle: saline 100 % of control

O=C(O)CSCC(=O)Nc1cc(C(F)(F)F)ccc1Cl
inactive: [1] 95 % of control | [2] 100 % of control | [17] 96 % of control

CCC[CH2][Sn][Cl]
inactive: [11] 104 % of control | [12] 114 % of control | [13] 117 % of control

CC(=O)OCC1OC(n2cccnc2=O)C(OC(C)=O)C1OC(C)=O (configuration not stated)
inactive: [18] 107 % of control | [19] 107 % of control | [20] 107 % of control | dose: 400.0 mg/kg/injection, schedule: Q01DX005 (ip), vehicle: saline 102 % of control

COc1ccccc1N=C(C1=C(O)c2ccccc2C1=O)c1ccccc1
inactive: [21] 100 % of control | [22] 102 % of control | dose: 400.0 mg/kg/injection, schedule: Q04DX002 (ip), vehicle: saline with Tween-80 94 % of control

CC(=O)Oc1cccnc1[N+](=O)[O-]
inactive: [23] 103 % of control and 106 % of control | dose: 25.0 mg/kg/injection, schedule: Q01DX009 (ip), vehicle: saline 100 % of control and 101 % of control | dose: 50.0 mg/kg/injection, schedule: Q01DX009 (ip), vehicle: saline 102 % of control and 120 % of control and 94 % of control | dose: 100.0 mg/kg/injection, schedule: Q01DX009 (ip), vehicle: saline 106 % of control and 108 % of control and 123 % of control | dose: 200.0 mg/kg/injection, schedule: Q01DX009 (ip), vehicle: saline 105 % of control and 119 % of control | dose: 400.0 mg/kg/injection, schedule: Q01DX009 (ip), vehicle: saline 105 % of control

CC(Cl)CN(CC(C)Cl)c1ccc2c(c1)Cc1ccccc1-2 (configuration not stated)
inactive: [14] 122 % of control | [15] 112 % of control

CCCOC(=O)/C=C(\I)C(=O)OCCC
inactive: [9] 119 % of control | [10] 110 % of control | [11] 110 % of control and 92 % of control

CCN(C(=O)COc1ccc(Cl)cc1Cl)c1ccccc1C
inactive: [3] 100 % of control | [4] 100 % of control | [5] 100 % of control

C=C(Cl)CSC(=S)N1CCOCC1
inactive: dose: 50.0 mg/kg/injection, schedule: Q01DX005 (ip), vehicle: saline with Tween-80 101 % of control and 102 % of control and 96 % of control | dose: 100.0 mg/kg/injection, schedule: Q01DX005 (ip), vehicle: saline with Tween-80 105 % of control and 107 % of control and 109 % of control | dose: 200.0 mg/kg/injection, schedule: Q01DX005 (ip), vehicle: saline with Tween-80 101 % of control and 120 % of control and 97 % of control

Nc1ccccc1-c1ccccc1N
inactive: dose: 60.0 mg/kg/injection, schedule: Q01DX005 (ip), vehicle: suspension in saline 99 % of control | dose: 120.0 mg/kg/injection, schedule: Q01DX005 (ip), vehicle: suspension in saline 103 % of control | dose: 240.0 mg/kg/injection, schedule: Q01DX005 (ip), vehicle: suspension in saline 90 % of control

CCC1(c2ccccc2)C(=O)N(CCCl)C(=O)N(CCCl)C1=O
inactive: [14] 92 % of control | [15] 92 % of control | [16] 92 % of control

C1C[N-]CC[N-]CC[N-]CC[N-]1.[Cl][Rh][Cl]
inactive: dose: 0.66 mg/kg/injection, schedule: Q01DX009 (ip), vehicle: saline 117 % of control | dose: 1.0 mg/kg/injection, schedule: Q01DX009 (ip), vehicle: saline 115 % of control | dose: 1.5 mg/kg/injection, schedule: Q01DX009 (ip), vehicle: saline 115 % of control | dose: 2.25 mg/kg/injection, schedule: Q01DX009 (ip), vehicle: saline 108 % of control | dose: 3.13 mg/kg/injection, schedule: Q01DX009 (ip), vehicle: saline 121 % of control | dose: 6.25 mg/kg/injection, schedule: Q01DX009 (ip), vehicle: saline 116 % of control | [23] 108 % of control

O=C(Cc1nc2cc(Cl)c(Cl)cc2nc1CC(=O)c1ccncc1)c1ccncc1
inactive: [1] 93 % of control | [2] 90 % of control | [17] 90 % of control

O=C1N(c2ccccc2)C(=O)N1c1ccccc1
inactive: [10] 93 % of control | [11] 99 % of control | [12] 108 % of control | [13] 97 % of control

CC(C)N1COC(c2ccccc2)C1 (configuration not stated)
inactive: dose: 12.5 mg/kg/injection, schedule: Q01DX005 (ip), vehicle: saline 106 % of control and 88 % of control | dose: 25.0 mg/kg/injection, schedule: Q01DX005 (ip), vehicle: saline 123 % of control and 96 % of control | [18] 100 % of control and 110 % of control and 117 % of control | [19] 124 % of control

CN(C)CCN(N)CCN(C)C
inactive: [18] 94 % of control | [19] 105 % of control | [20] 100 % of control

O=S(=O)(O)/[N+]([O-])=N/O
inactive: dose: 100.0 mg/kg/injection, schedule: Q04DX003 (ip), vehicle: saline 100 % of control | dose: 200.0 mg/kg/injection, schedule: Q04DX003 (ip), vehicle: saline 100 % of control | dose: 400.0 mg/kg/injection, schedule: Q04DX003 (ip), vehicle: saline 100 % of control

COc1ccc2c(c1)C(Cc1ccc(Oc3ccc(CC4c5cc(OC)ccc5CC[N+]4(C)C)cc3)cc1)[N+](C)(C)CC2 (configuration not stated)
inactive: dose: 1.56 mg/kg/injection, schedule: Q04DX003 (ip), vehicle: water 107 % of control

COc1ccc(C(C#N)C(=O)CCC(=O)C(C#N)c2ccc(OC)c(OC)c2)cc1OC (configuration not stated)
inactive: [21] 106 % of control | [22] 98 % of control
